Drawing on patent US10004701B2, “Methods and compositions for treating infection” (UNIVERSITY OF ROCHESTER, priority 2012, dated 2018), this text covers fold induction for 8 compounds.

Counter-ions that a name gives are not always drawn. Like-named read-outs stand apart in the source and are kept apart here.

What all share (assay): AK assay 384-well format, Prestwick library screening
Test [1] relates to K. pneumoniae. In kind it is cell-based, Klebsiella pneumoniae. The note with it: Klebsiella pneumoniae, 3 h, 50 μM final drug concentration.
In test [2] the test system is A. baumannii strain 98-37-09. It is filed as cell-based, Acinetobacter baumannii. As to conditions: Acinetobacter baumannii, 983709, 3 h, 50 μM final drug concentration.
The test system of test [3] is S. aureus strain USA300-0114. It is filed as cell-based, Staphylococcus aureus. The note with it: Staphylococcus aureus, USA300, 3 h, 50 μM final drug concentration.
Test [4] deals with P. aeruginosa. In kind it is cell-based, Pseudomonas aeruginosa. As to conditions: Pseudomonas aeruginosa, 3 h, 50 μM final drug concentration.
Test [5] has as its system E. faecium. In kind it is cell-based, Enterococcus faecium. The note with it: Enterococcus faecium, 3 h, 50 μM final drug concentration.
Test [6] deals with E. cloacae. In kind it is cell-based, Enterobacter cloacae. As to conditions: Enterobacter cloacae, 3 h, 50 μM final drug concentration.
Test [7] concerns E. coli. It is filed as cell-based, Escherichia coli. The note with it: Escherichia coli, 3 h, 50 μM final drug concentration.
Where [8] appears, read: 384-well format, cutoff for positive-scoring molecules 3-fold increase, read-out: AK-based Prestwick Library Screening Results, K. pneumoniae (increase in extracellular AK activity).
[9] abbreviates: 384-well format, cutoff for positive-scoring molecules 3-fold increase, read-out: AK-based Prestwick Library Screening Results, A. baumannii (increase in extracellular AK activity).
[10] abbreviates: 384-well format, cutoff for positive-scoring molecules 3-fold increase, read-out: AK-based Prestwick Library Screening Results, S. aureus (increase in extracellular AK activity).
Where [11] appears, read: 384-well format, cutoff for positive-scoring molecules 3-fold increase, read-out: AK-based Prestwick Library Screening Results, P. aeruginosa (increase in extracellular AK activity).
Setting [12] is: 384-well format, cutoff for positive-scoring molecules 3-fold increase, read-out: AK-based Prestwick Library Screening Results, E. faecium (increase in extracellular AK activity).
[13] abbreviates: 384-well format, cutoff for positive-scoring molecules 3-fold increase, read-out: AK-based Prestwick Library Screening Results, E. cloacae (increase in extracellular AK activity).
[14] abbreviates: 384-well format, cutoff for positive-scoring molecules 3-fold increase, read-out: AK-based Prestwick Library Screening Results, E. coli (increase in extracellular AK activity).
Where [15] appears, read: planktonic, […], read-out: AK-based Prestwick Library Screening Results, K. pneumoniae (fold increase in extracellular AK activity).
Setting [16] is: planktonic, […], read-out: AK-based Prestwick Library Screening Results, A. baumannii (fold increase in extracellular AK activity).
Where [17] appears, read: planktonic, […], read-out: AK-based Prestwick Library Screening Results, S. aureus (fold increase in extracellular AK activity).
[18] abbreviates: planktonic, […], read-out: AK-based Prestwick Library Screening Results, P. aeruginosa (fold increase in extracellular AK activity).
The mark [19] stands for this setting: planktonic, […], read-out: AK-based Prestwick Library Screening Results, E. faecium (fold increase in extracellular AK activity).
Setting [20] is: planktonic, […], read-out: AK-based Prestwick Library Screening Results, E. cloacae (fold increase in extracellular AK activity).
[21] abbreviates: planktonic, […], read-out: AK-based Prestwick Library Screening Results, E. coli (fold increase in extracellular AK activity).

For the compound `COc1ccc(C(=O)NCc2cccnc2)cc1C(=O)NCc1cccnc1` [Picotamide monohydrate], the fold induction at 50 µM in test [1] (setting [8]) stood at 0.8; in test [2] (setting [9]), 0.9; in test [3] (setting [10]) it was 0.7; in test [4] (setting [11]), 0.8; in test [5] (setting [12]), 0.9; in test [6] (setting [13]), 1.2. Further, the fold induction at 50 µM in test [7] (setting [14]) was found to be 0.9.

`C=C(C)[C@@H]1[C@H]2OC(=O)[C@@H]1[C@]1(O)C[C@H]3O[C@]34C(=O)O[C@H]2[C@]14C` [Picrotoxinin]: the fold induction at 50 µM in test [1] (setting [15]) was 0.6; in test [2] (setting [16]), 0.7; in test [3] (setting [17]), 0.6; in test [4] (setting [18]) it was 0.6; in test [5] (setting [19]), 1; in test [6] (setting [20]) it was 0.7. Further, in test [7] (setting [21]), the fold induction at 50 µM came out at 0.6.

Consider `CC[C@@H]1C(=O)OC[C@@H]1Cc1cncn1C` [Pilocarpine nitrate], for which the fold induction at 50 µM turned out to be 0.9 in test [1] (planktonic, cutoff for positive 3-fold increase, read-out: AK-based Prestwick Library Screening Results, K. pneumoniae (fold increase in extracellular AK activity)); 1 in test [2] (planktonic, cutoff for positive 3-fold increase, read-out: AK-based Prestwick Library Screening Results, A. baumannii (fold increase in extracellular AK activity)); 1.3 in test [3] (planktonic, cutoff for positive 3-fold increase, read-out: AK-based Prestwick Library Screening Results, S. aureus (fold increase in extracellular AK activity)); 1 in test [4] (planktonic, cutoff for positive 3-fold increase, read-out: AK-based Prestwick Library Screening Results, P. aeruginosa (fold increase in extracellular AK activity)); 1.1 in test [5] (planktonic, cutoff for positive 3-fold increase, read-out: AK-based Prestwick Library Screening Results, E. faecium (fold increase in extracellular AK activity)); 1.5 in test [6] (planktonic, cutoff for positive 3-fold increase, read-out: AK-based Prestwick Library Screening Results, E. cloacae (fold increase in extracellular AK activity)). The fold induction at 50 µM in test [7] (planktonic, cutoff for positive 3-fold increase, read-out: AK-based Prestwick Library Screening Results, E. coli (fold increase in extracellular AK activity)) came to 1.

As to `CN1CCC(=C2c3ccccc3Sc3ccccc32)CC1` [Pimethixene maleate], the fold induction at 50 µM in test [1] (planktonic K. pneumoniae, 384-well, […], read-out: AK-based Prestwick Library Screening Results: K. pneumoniae (increase in extracellular AK activity)) was determined as 1.2; in test [2] (planktonic A. baumannii, 384-well, […], read-out: AK-based Prestwick Library Screening Results: A. baumannii (increase in extracellular AK activity)), 1.1; in test [3] (planktonic S. aureus, 384-well, […], read-out: AK-based Prestwick Library Screening Results: S. aureus (increase in extracellular AK activity)), 0.9; in test [4] (planktonic P. aeruginosa, 384-well, […], read-out: AK-based Prestwick Library Screening Results: P. aeruginosa (increase in extracellular AK activity)), 1.1; in test [5] (planktonic E. faecium, 384-well, […], read-out: AK-based Prestwick Library Screening Results: E. faecium (increase in extracellular AK activity)), 1.1; in test [6] (planktonic E. cloacae, 384-well, […], read-out: AK-based Prestwick Library Screening Results: E. cloacae (increase in extracellular AK activity)) it was 1.4. Further, the fold induction at 50 µM in test [7] (planktonic E. coli, 384-well, […], read-out: AK-based Prestwick Library Screening Results: E. coli (increase in extracellular AK activity)) is 1.4.

As to `O=c1[nH]c2ccccc2n1C1CCN(CCCC(c2ccc(F)cc2)c2ccc(F)cc2)CC1` [Pimozide], the fold induction at 50 µM in test [1] (planktonic K. pneumoniae, 384-well, cutoff for positive-scoring molecules 3-fold increase, read-out: AK-based Prestwick Library Screening Results: K. pneumoniae (increase in extracellular AK activity)) turned out to be 1.3; in test [2] (planktonic A. baumannii, 384-well, cutoff for positive-scoring molecules 3-fold increase, read-out: AK-based Prestwick Library Screening Results: A. baumannii (increase in extracellular AK activity)) it was 8.7; in test [3] (planktonic S. aureus, 384-well, cutoff for positive-scoring molecules 3-fold increase, read-out: AK-based Prestwick Library Screening Results: S. aureus (increase in extracellular AK activity)), 2.3; in test [4] (planktonic P. aeruginosa, 384-well, cutoff for positive-scoring molecules 3-fold increase, read-out: AK-based Prestwick Library Screening Results: P. aeruginosa (increase in extracellular AK activity)), 1.3; in test [5] (planktonic E. faecium, 384-well, cutoff for positive-scoring molecules 3-fold increase, read-out: AK-based Prestwick Library Screening Results: E. faecium (increase in extracellular AK activity)) it was 1.3; in test [6] (planktonic E. cloacae, 384-well, cutoff for positive-scoring molecules 3-fold increase, read-out: AK-based Prestwick Library Screening Results: E. cloacae (increase in extracellular AK activity)), 1.2. The fold induction at 50 µM in test [7] (planktonic E. coli, 384-well, cutoff for positive-scoring molecules 3-fold increase, read-out: AK-based Prestwick Library Screening Results: E. coli (increase in extracellular AK activity)) is 1.7.

Turning to `CC(N/C(=N\C#N)Nc1ccncc1)C(C)(C)C` (centres unmarked) [Pinacidil], the fold induction at 50 µM in test [1] (setting [8]) was determined as 0.5; in test [2] (setting [9]), 0.5; in test [3] (setting [10]), 0.5; in test [4] (setting [11]) it was 0.5; in test [5] (setting [12]), 0.9; in test [6] (setting [13]) it was 0.6. In test [7] (setting [14]), the fold induction at 50 µM was determined as 0.5.

In the case of `CC(C)NCC(O)COc1cccc2[nH]ccc12` (centres unmarked) [Pindolol], the fold induction at 50 µM in test [1] (setting [8]) came to 0.6; in test [2] (setting [9]), 0.5; in test [3] (setting [10]) it was 0.5; in test [4] (setting [11]), 0.4; in test [5] (setting [12]) it was 1; in test [6] (setting [13]), 0.4. Besides, the fold induction at 50 µM in test [7] (setting [14]) stood at 0.5.

With `CCn1cc(C(=O)O)c(=O)c2cnc(N3CCNCC3)nc21` [Pipemidic acid], the fold induction at 50 µM in test [1] (setting [15]) amounted to 1.7; in test [2] (setting [16]) it was 0.9; in test [3] (setting [17]) it was 0.7; in test [4] (setting [18]) it was 0.9; in test [5] (setting [19]), 1.1; in test [6] (setting [20]), 1. Moreover, the fold induction at 50 µM in test [7] (setting [21]) was determined as 14.7.
